In patent publication EP0295827A2, “Use of 24,25-dihydroxy-cholecalciferol in mending bone fractures” (priority 1987, dated 1988):

Columns and labels:
ICR mice [1] = assay: 30-day repeated oral administration: urine analysis; type: in vivo; parameters: key: ↓: Decreased; →: No change; ↑: Increased; settings: 30 days, vs control group
Procedure: (§1) 24R,25-(OH)₂-D₃ was dissolved in 1% ethanol containing Panacate 810 to a predetermined concentration and the resultant solution was forcibly and orally administered to 5-week-old male or female ICR mice for 30 days in succession so that the does might become to 10 µg/kg/day, 100 µg/kg/day and 1,000 µg/kg/day, respectively. The thus treated mice were compared with a group of mice to which only the solvent had been administered in the following test items.

ICR mice [2] = assay: 30-day repeated oral administration: weight of organs; type: in vivo; parameters: key: ↓: Decreased; →: No change; ↑: Increased; settings: 30 days, vs control group
Procedure: as §1

ICR mice [3] = assay: 30-day repeated oral administration: pathological inspection of organs; type: in vivo; settings: 10, 100 and 1,000 µg/kg/day oral, 30 days; 10% formalin, hematoxylin-eosin
Procedure: as §1
The following organs were fixed by 10% formalin, stained with hematoxylin-eosin and subjected to pathological inspection.

[4] = 30-day repeated oral administration: growth curve of measured weights; type: in vivo, ICR mice; settings: 10, 100 and 1,000 µg/kg/day oral, 30 days, male or female, vs solvent group
Procedure: as §1

[5] = system: rabbits suffering fracture; assay: Fibula fracture model: X-ray inspection; type: in vivo, Japanese white house rabbits; settings: 100 µg/kg oral, 3 weeks after the bones had been broken
Description: (§2) The right fibulae of mature house rabbits (Japanese white house rabbits having a weight of about 3 kg) were broken at the central portions under anesthetic with a dental hand drill. Each of the house rabbits was kept in a separate cage and was allowed to take an ordinary solid food (CR-1, produced by Nippon Clare Corp.) and city water freely. 24R,25-(OH)₂-D₃ and 24S,25-(OH)₂-D₃ were dispersed in an aqueous 0.5% CMC solution and orally administered to the house rabbits through a rubber catheter. The experimental groups were as follows:
(§3) The respective medicines or aqueous 0.5% CMC solution was administered to these house rabbits for 3 weeks or 6 weeks after the bones had been broken. Thereafter, the house rabbits were killed and the fibulae were taken out for X-ray inspection and a strength test (bending test by DDV-VMF produced by Toyo Baldwin Co., Ltd.).

[6] = system: rabbits suffering fracture; assay: Fibula fracture model: strength test (bending test); type: in vivo, Japanese white house rabbits; settings: 100 µg/kg oral, average value ± standard deviation
Description: as §2, §3

Occult blood (ICR mice [1]; female, 10 μg/kg oral): → | Protein (ICR mice [1]; female, 10 μg/kg oral): → | Sugar (ICR mice [1]; female, 10 μg/kg oral): → | Urobilinogen (ICR mice [1]; female, 10 μg/kg oral): → | pH (ICR mice [1]; female, 10 μg/kg oral): → | Ketone body (ICR mice [1]; female, 100 μg/kg oral): → | Occult blood (ICR mice [1]; female, 100 μg/kg oral): → | Protein (ICR mice [1]; female, 100 μg/kg oral): → | Sugar (ICR mice [1]; female, 100 μg/kg oral): → | Urobilinogen (ICR mice [1]; female, 100 μg/kg oral): → | pH (ICR mice [1]; female, 100 μg/kg oral): → | Ketone body (ICR mice [1]; female, 1000 μg/kg oral): → | Occult blood (ICR mice [1]; female, 1000 μg/kg oral): → | Protein (ICR mice [1]; female, 1000 μg/kg oral): → | Sugar (ICR mice [1]; female, 1000 μg/kg oral): → | Urobilinogen (ICR mice [1]; female, 1000 μg/kg oral): → | pH (ICR mice [1]; female, 1000 μg/kg oral): → | Ketone body (ICR mice [1]; male, 10 μg/kg oral): → | Occult blood (ICR mice [1]; male, 10 μg/kg oral): → | Protein (ICR mice [1]; male, 10 μg/kg oral): → | Sugar (ICR mice [1]; male, 10 μg/kg oral): → | Urobilinogen (ICR mice [1]; male, 10 μg/kg oral): → | pH (ICR mice [1]; male, 10 μg/kg oral): → | Ketone body (ICR mice [1]; male, 100 μg/kg oral): → | Occult blood (ICR mice [1]; male, 100 μg/kg oral): → | Protein (ICR mice [1]; male, 100 μg/kg oral): → | Sugar (ICR mice [1]; male, 100 μg/kg oral): → | Urobilinogen (ICR mice [1]; male, 100 μg/kg oral): → | pH (ICR mice [1]; male, 100 μg/kg oral): → | Ketone body (ICR mice [1]; male, 1000 μg/kg oral): → | Occult blood (ICR mice [1]; male, 1000 μg/kg oral): → | Protein (ICR mice [1]; male, 1000 μg/kg oral): → | Sugar (ICR mice [1]; male, 1000 μg/kg oral): → | Urobilinogen (ICR mice [1]; male, 1000 μg/kg oral): → | pH (ICR mice [1]; male, 1000 μg/kg oral): → | Weight of organs: Adrenal gland (ICR mice [2]; gemale, 10 μg/kg·day oral): → | Weight of organs: Brain (ICR mice [2]; gemale, 10 μg/kg·day oral): → | Weight of organs: Heart (ICR mice [2]; gemale, 10 μg/kg·day oral): → | Weight of organs: Hypo-physis (ICR mice [2]; gemale, 10 μg/kg·day oral): → | Weight of organs: Kidney (ICR mice [2]; gemale, 10 μg/kg·day oral): → | Weight of organs: Liver (ICR mice [2]; gemale, 10 μg/kg·day oral): → | Weight of organs: Lung (ICR mice [2]; gemale, 10 μg/kg·day oral): → | Weight of organs: Ovary (ICR mice [2]; gemale, 10 μg/kg·day oral): → | Weight of organs: Spleen (ICR mice [2]; gemale, 10 μg/kg·day oral): → | Weight of organs: Thymus (ICR mice [2]; gemale, 10 μg/kg·day oral): → | Weight of organs: Uterus (ICR mice [2]; gemale, 10 μg/kg·day oral): → | Weight of organs: Adrenal gland (ICR mice [2]; gemale, 100 μg/kg·day oral): → | Weight of organs: Brain (ICR mice [2]; gemale, 100 μg/kg·day oral): → | Weight of organs: Heart (ICR mice [2]; gemale, 100 μg/kg·day oral): → | Weight of organs: Hypo-physis (ICR mice [2]; gemale, 100 μg/kg·day oral): → | Weight of organs: Kidney (ICR mice [2]; gemale, 100 μg/kg·day oral): → | Weight of organs: Liver (ICR mice [2]; gemale, 100 μg/kg·day oral): → | Weight of organs: Lung (ICR mice [2]; gemale, 100 μg/kg·day oral): → | Weight of organs: Ovary (ICR mice [2]; gemale, 100 μg/kg·day oral): → | Weight of organs: Spleen (ICR mice [2]; gemale, 100 μg/kg·day oral): → | Weight of organs: Thymus (ICR mice [2]; gemale, 100 μg/kg·day oral): → | Weight of organs: Uterus (ICR mice [2]; gemale, 100 μg/kg·day oral): → | Weight of organs: Adrenal gland (ICR mice [2]; gemale, 1000 μg/kg·day oral): → | Weight of organs: Brain (ICR mice [2]; gemale, 1000 μg/kg·day oral): → | Weight of organs: Heart (ICR mice [2]; gemale, 1000 μg/kg·day oral): → | Weight of organs: Hypo-physis (ICR mice [2]; gemale, 1000 μg/kg·day oral): → | Weight of organs: Kidney (ICR mice [2]; gemale, 1000 μg/kg·day oral): → | Weight of organs: Liver (ICR mice [2]; gemale, 1000 μg/kg·day oral): → | Weight of organs: Lung (ICR mice [2]; gemale, 1000 μg/kg·day oral): → | Weight of organs: Ovary (ICR mice [2]; gemale, 1000 μg/kg·day oral): → | Weight of organs: Spleen (ICR mice [2]; gemale, 1000 μg/kg·day oral): → | Weight of organs: Thymus (ICR mice [2]; gemale, 1000 μg/kg·day oral): → | Weight of organs: Uterus (ICR mice [2]; gemale, 1000 μg/kg·day oral): → | Weight of organs: Adrenal gland (ICR mice [2]; male, 10 μg/kg·day oral): → | Weight of organs: Brain (ICR mice [2]; male, 10 μg/kg·day oral): → | Weight of organs: Heart (ICR mice [2]; male, 10 μg/kg·day oral): → | Weight of organs: Hypo-physis (ICR mice [2]; male, 10 μg/kg·day oral): → | Weight of organs: Kidney (ICR mice [2]; male, 10 μg/kg·day oral): → | Weight of organs: Liver (ICR mice [2]; male, 10 μg/kg·day oral): → | Weight of organs: Lung (ICR mice [2]; male, 10 μg/kg·day oral): → | Weight of organs: Spleen (ICR mice [2]; male, 10 μg/kg·day oral): → | Weight of organs: Testis (ICR mice [2]; male, 10 μg/kg·day oral): → | Weight of organs: Thymus (ICR mice [2]; male, 10 μg/kg·day oral): → | Weight of organs: Adrenal gland (ICR mice [2]; male, 100 μg/kg·day oral): → | Weight of organs: Brain (ICR mice [2]; male, 100 μg/kg·day oral): → | Weight of organs: Heart (ICR mice [2]; male, 100 μg/kg·day oral): → | Weight of organs: Hypo-physis (ICR mice [2]; male, 100 μg/kg·day oral): → | Weight of organs: Kidney (ICR mice [2]; male, 100 μg/kg·day oral): → | Weight of organs: Liver (ICR mice [2]; male, 100 μg/kg·day oral): → | Weight of organs: Lung (ICR mice [2]; male, 100 μg/kg·day oral): → | Weight of organs: Spleen (ICR mice [2]; male, 100 μg/kg·day oral): → | Weight of organs: Testis (ICR mice [2]; male, 100 μg/kg·day oral): → | Weight of organs: Thymus (ICR mice [2]; male, 100 μg/kg·day oral): → | Weight of organs: Adrenal gland (ICR mice [2]; male, 1000 μg/kg·day oral): → | Weight of organs: Brain (ICR mice [2]; male, 1000 μg/kg·day oral): → | Weight of organs: Heart (ICR mice [2]; male, 1000 μg/kg·day oral): → | Weight of organs: Hypo-physis (ICR mice [2]; male, 1000 μg/kg·day oral): → | Weight of organs: Kidney (ICR mice [2]; male, 1000 μg/kg·day oral): → | Weight of organs: Liver (ICR mice [2]; male, 1000 μg/kg·day oral): → | Weight of organs: Lung (ICR mice [2]; male, 1000 μg/kg·day oral): → | Weight of organs: Spleen (ICR mice [2]; male, 1000 μg/kg·day oral): → | Weight of organs: Testis (ICR mice [2]; male, 1000 μg/kg·day oral): → | Weight of organs: Thymus (ICR mice [2]; male, 1000 μg/kg·day oral): → | growth curve of the measured weights [4]: no significant difference
Compound: C=C1CC[C@H](O)C/C1=C/C=C1\CCC[C@]2(C)[C@@H]([C@H](C)CC[C@@H](O)C(C)(C)O)CC[C@@H]12 [24R,25-(OH)₂-D₃]
pathological inspection of organs (ICR mice [3]): No particular abnormality was observed | X-ray inspection [5]: the cure of the fracture was accelerated | Bending strength ([6]; 3 weeks after): 63 ± 33 N/mm | Bending strength ([6]; 6 weeks after): 103 ± 15 N/mm
